# Data: paper PMC3032760, “Two-dose-level confirmatory study of the pharmacokinetics and tolerability of everolimus in Chinese patients with advanced solid tumors” (Journal of Hematology & Oncology, 2011)
# Values joined by “and” are separate entries in the source; they are usually repeats but may differ in a detail not shown here. Equal values may be shown once. Read-outs that look alike come from different tables or passages of the source.
# Tests used:
# Assay type in all cases: in vivo, human
# [1] = Everolimus blood pharmacokinetics (24-h profile day 15, trough levels) in Chinese patients with advanced solid tumors; details: for Tmax / Cmax / AUC: human, whole blood; for Tmax: po, read-out: Tmax, median (range); for Cmax / AUC: n = 12, day 15, blood; for Cmax / AUC / Cmin (pre-dose trough concentration): mean (% coefficient of variation); for AUC: read-out: AUC0-τ; for CL/F, mean (± standard deviation): after reaching steady state; for Cmin (pre-dose trough concentration): n = 12, blood; for Time to steady-state levels: continuous daily dosing
# Description: Blood samples for everolimus 24-h PK profile were collected on day 15 pre-dose and at 1, 2, 4, 6, 8, and 24 h post-dose; blood samples for everolimus trough concentration were collected pre-dose on days 2, 8, 16, and 22. Everolimus concentration was determined after liquid extraction by a liquid chromatography-mass spectroscopy method with lower limits of quantification for everolimus of 0.3 ng/mL. PK parameters of everolimus determined for each cohort included the maximum blood concentration (Cmax), minimum blood concentration (Cmin), time to maximum concentration (Tmax), area under the dosing curve (AUC0-τ), and total body apparent clearance of drug from the blood (CL/F). PK analyses were performed on all patients in the safety population with a sufficient number of evaluable blood samples.
# [2] = Safety and tolerability: adverse events graded by NCI CTCAE v3.0; details: for Deaths during the study: considered unrelated to everolimus
# Excerpt: Safety assessments included incidence, severity, and treatment relationship of adverse and serious adverse events and the regular monitoring of hematology, serum and urine chemistry, vital signs, and physical condition. Adverse events were graded according to the National Cancer Institute's Common Terminology Criteria for Adverse Events, version 3.0 [22]. The safety population consisted of all patients who received ≥1 dose of study drug and had ≥1 post-baseline safety assessment.
# advanced solid tumors = assay: Tumor response and progression by RECIST; details: for Best overall tumor response stable disease, patients: n = 12; for Patients with stable disease: both cohorts, 6 patients per tumor type
# Description: Tumor response and progression was assessed locally for all randomized patients using RECIST criteria. A computed tomography scan or magnetic resonance image of the chest, abdomen, and pelvis was performed at screening and every 2 months (±7 days) thereafter. Confirmatory imaging results ≥4 weeks after an initial observation were required for a positive assessment of complete or partial response.
# [3] = Patient disposition at final analysis; details: n = 12
# Description: Patients continued treatment until tumor progression, unacceptable toxicity, death, or discontinued if the investigator or patient felt it was in the patient's best interest to discontinue participation. Dose modifications were allowed in the event of adverse events grade ≥2. Specific nomograms were followed to manage patients who developed known toxicities of everolimus, such as non-infectious pneumonitis.
# This final analysis was performed after all patients had received 6 months of study drug or had discontinued from the study.
# [4] = 5 mg/day, n = 12, suspected relationship to everolimus
# [5] = 10 mg/day, n = 12, suspected relationship to everolimus
compound,measurement,setting,value
"CO[C@H]1C[C@@H]2CC[C@@H](C)[C@@](O)(O2)C(=O)C(=O)N2CCCC[C@H]2C(=O)O[C@H]([C@H](C)C[C@@H]2CC[C@@H](OCCO)[C@H](OC)C2)CC(=O)[C@H](C)/C=C(\C)[C@@H](O)[C@@H](OC)C(=O)[C@H](C)C[C@H](C)/C=C/C=C/C=C/1C [Everolimus, everolimus]","Cmin, Cmax and AUC0-τ with 10 mg/day relative to 5 mg/day",[1]; 10 mg/day versus 5 mg/day,approximately 2 fold
same,Tmax,"[1]; 5 mg/day, oral 5 mg/day, n = 12",3 h
same,Tmax,"[1]; 10 mg/day, oral 10 mg/day, n = 12",2 h
same,Cmax,[1]; oral 5 mg/day,28.8 ng/mL
same,AUC,[1]; oral 5 mg/day,316 ng·h/mL
same,Cmax,[1]; oral 10 mg/day,53.8 ng/mL
same,AUC,[1]; oral 10 mg/day,589 ng·h/mL
same,"CL/F, mean (± standard deviation)",[1]; oral 5 mg/day,16.7 (±5.6) L/h
same,"Tmax, median (range)","[1]; oral 5 mg/day, n = 12",2.96 (1.00-4.00) h
same,Cmin (pre-dose trough concentration),[1]; oral 5 mg/day,8.3 (46.8) ng/mL
same,"CL/F, mean (± standard deviation)",[1]; oral 10 mg/day,18.2 (±7.2) L/h
same,Cmin (pre-dose trough concentration),[1]; oral 10 mg/day,14.5 (47.9) ng/mL
same,Time at which maximum blood concentrations were generally reached,[1]; oral 5 and 10 mg/day,2 to 4 h
same,Time to steady-state levels,[1]; oral 5 and 10 mg/day,≤ 8 days
same,Time to steady-state levels,"[1]; oral 5 and 10 mg/day, listed as everolimus",8 days
same,"Fatigue suspected to be related to everolimus, patients",[2]; 5 mg/day cohort,16.7%
same,"Hyperglycemia (increased blood glucose) suspected to be related to everolimus, patients",[2]; 5 mg/day cohort,16.7%
same,Patients with grade 3 adverse events suspected to be related to everolimus,[2]; 5 mg/day cohort,25%
same,Deaths during the study,[2]; 5 mg/day cohort,1
same,"Adverse events with suspected relationship to everolimus: Total, All grades","[2]; 5 mg/day, n = 12",12 (100) n (%)
same,"Adverse events with suspected relationship to everolimus: Total, Grade 3","[2]; 5 mg/day, n = 12",3 (25.0) n (%)
same,"Adverse events with suspected relationship to everolimus: Total, Grade 4","[2]; 5 mg/day, n = 12",0 n (%)
same,"Anemia, All grades",[2]; [4],1 (8.3) n (%)
same,"Anemia, Grade 3",[2]; [4],1 (8.3) n (%)
same,"Anemia, Grade 4",[2]; [4],0 n (%)
same,"Blood alkaline phosphatase increased, All grades",[2]; [4],1 (8.3) n (%)
same,"Blood alkaline phosphatase increased, Grade 3",[2]; [4],0 n (%)
same,"Blood alkaline phosphatase increased, Grade 4",[2]; [4],0 n (%)
same,"Fatigue, All grades",[2]; [4],2 (16.7) n (%)
same,"Fatigue, Grade 3",[2]; [4],0 n (%)
same,"Fatigue, Grade 4",[2]; [4],0 n (%)
same,"Hyperglycemia, All grades",[2]; [4],2 (16.7) n (%)
same,"Hyperglycemia, Grade 3",[2]; [4],0 n (%)
same,"Hyperglycemia, Grade 4",[2]; [4],0 n (%)
same,"Hypokalemia, All grades",[2]; [4],3 (25.0) n (%)
same,"Hypokalemia, Grade 3",[2]; [4],1 (8.3) n (%)
same,"Hypokalemia, Grade 4",[2]; [4],0 n (%)
same,"Thrombocytopenia, All grades",[2]; [4],2 (16.7) n (%)
same,"Thrombocytopenia, Grade 3",[2]; [4],1 (8.3) n (%)
same,"Thrombocytopenia, Grade 4",[2]; [4],0 n (%)
same,"Upper respiratory tract infection, All grades",[2]; [4],1 (8.3) n (%)
same,"Upper respiratory tract infection, Grade 3",[2]; [4],1 (8.3) n (%)
same,"Fatigue suspected to be related to everolimus, patients",[2]; 10 mg/day cohort,33.3%
same,"Hyperglycemia (increased blood glucose) suspected to be related to everolimus, patients",[2]; 10 mg/day cohort,41.7%
same,Patients with grade 3 adverse events suspected to be related to everolimus,[2]; 10 mg/day cohort,25%
same,Deaths during the study,[2]; 10 mg/day cohort,2
same,"Adverse events with suspected relationship to everolimus: Total, All grades","[2]; 10 mg/day, n = 12",12 (100) n (%)
same,"Adverse events with suspected relationship to everolimus: Total, Grade 3","[2]; 10 mg/day, n = 12",3 (25.0) n (%)
same,"Adverse events with suspected relationship to everolimus: Total, Grade 4","[2]; 10 mg/day, n = 12",0 n (%)
same,"Anemia, All grades",[2]; [5],3 (25.0) n (%)
same,"Anemia, Grade 3",[2]; [5],0 n (%)
same,"Anemia, Grade 4",[2]; [5],0 n (%)
same,"Blood alkaline phosphatase increased, All grades",[2]; [5],3 (25.0) n (%)
same,"Blood alkaline phosphatase increased, Grade 3",[2]; [5],1 (8.3) n (%)
same,"Blood alkaline phosphatase increased, Grade 4",[2]; [5],0 n (%)
same,"Fatigue, All grades",[2]; [5],4 (33.3) n (%)
same,"Fatigue, Grade 3",[2]; [5],1 (8.3) n (%)
same,"Fatigue, Grade 4",[2]; [5],0 n (%)
same,"Hyperglycemia, All grades",[2]; [5],5 (41.7) n (%)
same,"Hyperglycemia, Grade 3",[2]; [5],1 (8.3) n (%)
same,"Hyperglycemia, Grade 4",[2]; [5],0 n (%)
same,"Hypokalemia, All grades",[2]; [5],2 (16.7) n (%)
same,"Hypokalemia, Grade 3",[2]; [5],0 n (%)
same,"Hypokalemia, Grade 4",[2]; [5],0 n (%)
same,"Thrombocytopenia, All grades",[2]; [5],3 (25.0) n (%)
same,"Thrombocytopenia, Grade 3",[2]; [5],0 n (%)
same,"Thrombocytopenia, Grade 4",[2]; [5],0 n (%)
same,"Upper respiratory tract infection, All grades",[2]; [5],0 n (%)
same,"Upper respiratory tract infection, Grade 3",[2]; [5],0 n (%)
same,"Upper respiratory tract infection, Grade 4",[2]; [5],0 n (%)
same,Noninfectious pneumonitis,[2]; 5 and 10 mg/day cohorts,not observed
same,Tolerability,"[2]; 5 or 10 mg/day, Chinese patients with advanced solid tumors",well tolerated
same,Patients reporting ≥1 adverse event,"[2]; both cohorts, 24 patients in total",24 patients
same,"Grade 3 upper respiratory tract infection, patients","[2]; whole study, reversible with remedial treatment and interruption of everolimus",1 patient
same,"Progressive disease as best overall response, patients",advanced solid tumors; 5 mg/day cohort,16.7%
same,"Best overall tumor response stable disease, patients",advanced solid tumors; 5 mg/day cohort,83% and 83.3%
same,Median duration of stable disease,"advanced solid tumors; 5 mg/day cohort, 95% CI 2.89-8.05",5.03 months
same,"Progressive disease as best overall response, patients",advanced solid tumors; 10 mg/day cohort,41.7%
same,"Best overall tumor response stable disease, patients",advanced solid tumors; 10 mg/day cohort,50%
same,Median duration of stable disease,"advanced solid tumors; 10 mg/day cohort, 95% CI 3.58-not reached",6.08 months
same,Median duration of stable disease,"advanced solid tumors; 4 patients with RCC, at data cutoff, 95% CI 6.08-11.1+",not yet been reached
same,Complete or partial responses,"advanced solid tumors; 5 and 10 mg/day cohorts, RECIST",No complete or partial responses
same,Patients with stable disease,advanced solid tumors; NSCLC,4 patients
same,Patients with stable disease,advanced solid tumors; RCC,4 patients
same,Patients with stable disease,advanced solid tumors; breast cancer,3 patients
same,Patients with stable disease,advanced solid tumors; gastric cancer,5 patients
same,Discontinued: Death,[3]; 5 mg/day,0 n (%)
same,Discontinued: Disease progression,[3]; 5 mg/day,9 (75.0) n (%)
same,Discontinued: Death,[3]; 10 mg/day,2 (16.7) n (%)
same,Discontinued: Disease progression,[3]; 10 mg/day,7 (58.3) n (%)
